Experimental data as given in PMC7369637, “Inhibition of Resistance-Refractory P. falciparum Kinase PKG Delivers Prophylactic, Blood Stage, and Transmission-Blocking Antiplasmodial Activity” (Cell Chemical Biology, 2020).
Read-outs that look alike come from different tables or passages of the source.

How the values were obtained:
Pf NF54 male gametes = test: Dual gamete formation assay, male gamete exflagellation; type: cell-based; conditions: Plasmodium falciparum
Procedure: Pf NF54 gametocytes were generated as reported elsewhere ([Delves et al., 2016]). Briefly, static cultures of unsynchronized asexual parasites were continuously maintained as above. Parasites were cultured at 1% ring-stage parasitemias and 4% (v/v) hematocrit prior to the induction of gametocytes. To prepare gametocytes, 75% of the media was replaced daily for 14 subsequent days without adding fresh RBCs. During this process the temperature was kept strictly constant, as the rate of exflagellation is highly temperature-dependent. Between days 1 and 4 after culture induction, the asexual parasitemias increased rapidly to a peak. By day 7, as the asexual population waned, early-stage gametocytes became observable. By day 8, gametocyte maturation had progressed, and by day 14 morphologically distinguishable, mature stage V male and female gametocytes were present. […] Control reactions contained DMSO or 20 μM methylene blue (as negative and positive controls, respectively). […] After imaging, the plate was incubated at 18°C for a further 24 h to allow female gametes to maximally express Pfs25, followed by fluorescence microscopy imaging using a 10× objective. Both time lapse images of exflagellation and fluorescence images of female gametes were automatically quantified using custom scripts in ICY BioImage Analysis ([Delves et al., 2016]).

[1] = target: T1, cGMP-dependent protein kinase (PKG) (PF3D7_1436600) (Plasmodium falciparum, UniProt Q8I719); test: Competitive chemoproteomics in Pf lysates (Kinobeads / bead-immobilized compound); type: binding; conditions: lysates exposed to 40 μM of the same compound vs vehicle
T1 construct: The beads were incubated at 4°C for 1 h with either 0.1 ml (0.3 mg) Pf blood stage extract; endogenous in cells; host or cells: P. falciparum asexual blood-stage parasites (trophozoite stage), saponin-freed and lysed
T1 sequence (Q8I719 whole entry): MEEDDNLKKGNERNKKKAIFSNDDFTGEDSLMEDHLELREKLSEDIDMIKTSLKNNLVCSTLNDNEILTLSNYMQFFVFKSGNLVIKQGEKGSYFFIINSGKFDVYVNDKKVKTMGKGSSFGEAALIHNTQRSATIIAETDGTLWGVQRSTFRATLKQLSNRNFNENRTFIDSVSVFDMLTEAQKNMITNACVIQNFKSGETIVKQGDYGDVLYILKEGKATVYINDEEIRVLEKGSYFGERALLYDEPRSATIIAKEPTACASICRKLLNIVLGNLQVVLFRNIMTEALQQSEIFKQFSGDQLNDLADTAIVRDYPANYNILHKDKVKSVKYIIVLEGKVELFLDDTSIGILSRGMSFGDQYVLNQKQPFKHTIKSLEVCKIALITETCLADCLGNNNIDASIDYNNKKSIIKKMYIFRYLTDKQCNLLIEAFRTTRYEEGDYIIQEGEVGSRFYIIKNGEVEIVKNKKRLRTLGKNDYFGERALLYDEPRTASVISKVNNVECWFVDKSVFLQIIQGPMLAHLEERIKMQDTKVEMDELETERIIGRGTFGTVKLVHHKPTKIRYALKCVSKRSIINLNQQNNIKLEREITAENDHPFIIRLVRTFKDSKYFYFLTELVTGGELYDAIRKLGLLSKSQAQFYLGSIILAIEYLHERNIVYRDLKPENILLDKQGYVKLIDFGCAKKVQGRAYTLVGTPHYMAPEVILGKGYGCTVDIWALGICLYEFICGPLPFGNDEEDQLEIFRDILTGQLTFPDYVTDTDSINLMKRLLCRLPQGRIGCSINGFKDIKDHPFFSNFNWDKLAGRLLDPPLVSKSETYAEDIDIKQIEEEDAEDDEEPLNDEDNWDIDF
Procedure: Parasite cultures at the trophozoite stage were harvested, washed twice in RPMI 1640 medium (Gibco), and lysed by the addition of saponin to a final concentration of 0.1% for 5 min at room temperature. Free parasites were sedimented by centrifugation (3500 rpm for 10 min), washed three times with phosphate-buffered saline, and stored at −80°C. Parasites were resuspended in cell lysis buffer (50 mM tris-HCl (pH 7.5), 5% glycerol, 1.5 mM MgCl2, 1.5 mM NaCl, 1 mM Na3PO4, 25 mM sodium fluoride, 0.8% NP-40, EDTA-free protease inhibitor cocktail tablets (Roche Diagnostics), and 1 mM DTT) and disrupted by sonication (Sonics Vibra-Cell) using two 30-s cycles on ice at half-amplitude. […]
Kinobeads were prepared by immobilizing Bis-(III) indolyl-maleimide, purvalanol B, staurosporine and CZC8004, and the analogs of PD173955, sunitinib and vandetanib on NHS-activated Sepharose 4 beads (Amersham) ([Bantscheff et al., 2007]). […] 10 samples were measured in parallel (TMT 10-plex ([Werner et al., 2014])) to generate values for the affinity of the beads to the bound proteins (“depletion” values, 4 samples) and to generate IC50 values (6 samples) in a single experiment. Apparent dissociation constants were determined after accounting for protein depletion by the beads ([Bantscheff et al., 2011]). […]

[2] = tested on: early and late stage gametocytes (3D7elo1-pfs16-CBG99); test: Gametocyte susceptibility, CBG99-luciferase assay; type: cell-based; conditions: Plasmodium falciparum
Procedure: This was determined using two separate assays. The first involved MitoTracker staining and high-content imaging. Mature (stage V) gametocytes were generated from NF54 ABS cultures as described elsewhere ([Plouffe et al., 2016]). Briefly, asexual parasites were cultured at 5% hematocrit in O^+ human erythrocytes in serum-containing complete media (RPMI 1640 (Life Technologies), 0.05 mg/ml gentamicin (Life Technologies), 0.014 mg/ml hypoxanthine (Sigma), 38.4 mM HEPES (Sigma), 0.2% (w/v) sodium bicarbonate (Sigma), D-glucose 0.2% (w/v) (Sigma), 3.4 mM sodium hydroxide (Sigma), 4.3% (v/v) heat-inactivated human serum (O^+, Interstate Blood bank), and 0.2% (w/v) AlbuMAX® II (Life Technologies)). Parasites were cultured at 37 °C under low-oxygen conditions (3% O2, 5% CO2, 92% N2) and parasitemias were maintained between 0.5% and 3% in cultures with 5% hematocrit. Ring-stage parasites underwent three rounds of synchronization with 5% (w/v) D-Sorbitol (Sigma), on days -8, -6 and -4 relative to the day of initiating gametocyte production. Trophozoite-stage parasites were shaken overnight at 37°C until day -1. On day -2 only 50% of the media was exchanged to provide additional stress to cultures, whose parasitemias had typically attained 7-10%. Complete media exchange was performed daily from day -1 onwards. Stage V gametocytes were treated with 50 mM N-acetyl glucosamine (Sigma) on days 0-9. […] The second assay assessed gametocyte susceptibility using a luciferase-based assay with 3D7elo1-pfs16-CBG99 transgenic parasites ([Cevenini et al., 2014]). […] Cell viability was then evaluated by adding a non-lysing formulation of 0.5 mM D-Luciferin substrate and measuring luciferase activity for 0.5 s on a Varioskan™ Flash Multimode Reader (Thermo Scientific). The percent of viability was calculated as a function of drug concentration and IC50 values were derived by non-linear regression analysis and curve fitting (using GraphPad Prism 6.0).

Question: CC(C)(CN)c1nc(-c2ccc(Cl)c(O)c2)c(-c2ccncc2)[nH]1 [MMV030084] was tested. Which IC50 (Pf NF54 male gametes; carry-over: gametogenesis induced in the presence of compound, read-out: IC50, male gamete exflagellation) did it give?
Answer: 0.141 µM

Question: And the IC50 (Pf NF54 male gametes; compound washed out before gamete formation, read-out: IC50, male gamete formation, wash-out)?
Answer: > 10 µM

Question: What about the “PKG pull-down by bead-bound compound” value [1] of the same molecule?
Answer: pulled down

Question: What about the IC50 ([2]; read-out: IC50, sexual gametocyte stage (Figure 1B)) of the same molecule?
Answer: > 37.5 µM

Question: And the IC50 ([2]; CBG99-luciferase assay, 48 h, read-out: IC50, early stage gametocytes)?
Answer: > 40 µM

Question: And the IC50 ([2]; CBG99-luciferase assay, 48 h, read-out: IC50, late stage gametocytes)?
Answer: > 40 µM
